Measurements from patent US8658373B2, “Method of screening for an agent for treating arthritis and promoting growth of articular chondrocytes” (Kazuwa Nakao, priority 2004, dated 2014).
“Also recorded” adds a separate entry of the source. Bridges are numbered along the chain shown (N, C = ends). Where no end group is shown, it is not given here.

Experiments:
[1] = system: collagenase OA mouse model (right knee joint); test: Combined effect of NSAID and CNP in collagenase OA model; format: in vivo; conditions: 7 days
Experimental: An osmotic […]) containing the solutions below was transplanted subcutaneously in the back of a 9-week-old male C57BL/6 J strain mouse. • Solvent: Distilled water containing 5% dextrose (Junsei Chemical Co., Ltd., Japan), 10% mannose (Nacalai Tesque Inc., Japan) and 5 mmol/L hydrochloric acid (Wako Pure Chemical Industries, Japan). • 1 μg/mL solution (6 ng/day) of CNP-22 (Calbiochem Novabiochem). In addition, to examine the effect of the NSAID indomethacin (Sigma) when used alone and in combination with the CNP, an indomethacin suspension in 0.2% carboxymethyl cellulose (Nacalai Tesque Inc., Japan) was administered orally in a forced manner at 1 mg/kg once a day for 4 successive days from the date of pump transplantation described above. On the date of pump transplantation and the following day, 6 μL of 0.15% type II collagenase (Sigma) and 6 μL of 1.5% type II collagenase solutions, respectively, were injected into the right knee joint, the breadth of both the right and left knee joints was measured daily with a slide caliper (Mitutoyo Corp., Japan) for 7 days after injection, and the difference between the right and left knee joints was calculated. This difference represented the swelling of knee joints, and the AUC was compared between the solvent control and CNP groups by the Student's t-test (SAS ver. 6.12).

[2] = system: mouse bone marrow macrophages (BMM); conditions: stimulation of mouse BMM with LPS; cited from earlier work
[3] = system: blood thromboxane B2 (TXB2) level; conditions: LPS administration in mice; cited from earlier work
[4] = system: collagenase OA mouse model (right knee joint); test: Therapeutic effect of CNP infusion on collagenase osteoarthritic mouse model; format: in vivo; conditions: for AUC of knee joint swelling (difference between right and left knee joint breadth) vs solvent control: 1.5% collagenase, 28 days; for swelling of the right knee joint vs solvent control: 6 days following 1.5% collagenase
Experimental: (§1) An osmotic pump (2004 model, Durect) containing the solutions below was transplanted subcutaneously in the back of a 9-week-old male C57BL/6 J strain mouse. • Solvent: Distilled water containing 5% dextrose (Junsei Chemical Co., Ltd., Japan), 10% mannose (Nacalai Tesque Inc., Japan) and 5 mmol/L hydrochloric acid (Wako Pure Chemical Industries, Japan). • 10 μg/mL solution (60 ng/day) of CNP-22 (Calbiochem Novabiochem). • 100 μg/mL solution (600 ng/day) of CNP-22 (Calbiochem Novabiochem.).
Six days after transplantation, 6 μL of 1.5% type II collagenase (Sigma) solution was injected into the right knee joint, the breadth of both the right and left knee joints was measured on time with a slide caliper (Mitutoyo Corp., Japan) for 28 days after injection, and the difference between the right and left knee joints was calculated. This difference represented the swelling of knee joints, and the AUC was compared between the solvent control and CNP groups by the Student's t-test (SAS ver. 6.12). […] Hematoxylin-eosin-stained and safranin O-stained samples were prepared according to the method as described in Example 5, and analyzed histopathologically.

[5] = system: surgical OA mouse model (right knee joint); test: Therapeutic effect of CNP infusion on surgical OA mouse model; format: in vivo; conditions: 4, 8 and 11 days postoperatively
Experimental: as §1, with “mouse (CLEA Japan, Japan).” for “mouse.”, “[…]” for “μg/mL”, “Novabiochem).” for “Novabiochem.).”
On the following day of transplantation, the mouse was anesthetized with ether and subjected to the surgical procedures of anterocrucial ligament excision, medial collateral ligament excision and medial meniscus total resection in the right knee joint to induce osteoarthritis. The breadth of both the right and left knee joints was measured on time with a slide caliper (Mitutoyo Corp.) for 11 days after administration, and the difference between the right and left knee joints was calculated. This difference represented the swelling of knee joints, and the AUC was compared between the solvent control and CNP groups by the Student's t-test (SAS Preclinical Package, SAS Institute Japan, Japan).

[6] = system: adjuvant arthritis rat model; test: Effect of CNPs on adjuvant arthritis rat model; format: in vivo; conditions: CNP-22 60 ng/day; for arthritis score of the limb ends vs solvent control: osmotic pump subcutaneous; for body weight vs solvent control: days 7 and 10 from antigen sensitization
[7] = system: collagen arthritis rat model; test: Effect of CNPs on collagen arthritis rat model; format: in vivo; conditions: CNP-22 6 μg/day, days 21, 24 and 28 from antigen sensitization
Experimental: An osmotic pump (2004 model, Durect) containing the solutions below was transplanted subcutaneously in the back of a 10-week-old female DA/Slc strain rat (Japan SLC, Inc., Japan). • Solvent: Distilled water containing 5% dextrose (Junsei Chemical Co., Ltd., Japan), 10% mannose (Nacalai Tesque Inc., Japan) and 5 mmol/L hydrochloric acid (Wako Pure Chemical Industries, Japan). • 1 mg/mL solution (6 μg/day) of CNP-22 (Calbiochem Novabiochem).
Immediately after transplantation, bovine type II collagen (Collagen Technology Training Co., Japan) was dissolved in 0.1 mol/L aqueous acetic acid so as to make 1.5 mg/mL and suspended in an equal volume of Freund Incomplete Adjuvant (DIFCO LABORATORIES), and 400 μL of the suspension was inoculated into the skin on the back of a rat. Changes in body weight were also measured on a daily basis. In addition, changes in body weight were also measured in a normal group receiving neither pump transplantation nor inoculation.

[8] = CNP-22 60 ng/day continuous subcutaneous
[9] = CNP-22 600 ng/day continuous subcutaneous

| Molecule | swelling of knee joints (AUC) vs solvent control ([1]; indomethacin 1 mg/kg oral once a day for 4 days, alone) | inhibitory effect on the enhancement of PGE2 production [2] | effect on LPS-increased blood TXB2 level [3] | synovial cell growth, granulation and inflammatory cell infiltration in the synovial membrane (histopathology) ([4]; CNP group vs solvent control, collagenase-induced) | degeneration of the articular cartilage ([4]; CNP group, osmotic pump infusion) | AUC of knee joint swelling (difference between right and left knee joint breadth) vs solvent control ([4]; CNP-22 60 ng/day continuous subcutaneous (osmotic pump)) | swelling of the right knee joint vs solvent control [4, 8] | AUC of knee joint swelling (difference between right and left knee joint breadth) vs solvent control ([4]; CNP-22 600 ng/day continuous subcutaneous (osmotic pump)) | swelling of the right knee joint vs solvent control [4, 9] | AUC of knee joint swelling vs solvent control [5, 8] | AUC of knee joint swelling vs solvent control [5, 9] | swelling of knee joints (AUC) vs solvent control ([1]; CNP-22 6 ng/day continuous subcutaneous alone) | arthritis score of the limb ends vs solvent control [6] | arthritis score of the limb ends vs solvent control ([6]; listed as CNP) | body weight vs solvent control [6] | body weight vs solvent control ([6]; listed as CNP) | body weight (body weight loss) vs solvent control [7] | body weight (body weight loss) vs solvent control ([7]; listed as CNP) |
| --- | --- | --- | --- | --- | --- | --- | --- | --- | --- | --- | --- | --- | --- | --- | --- | --- | --- | --- |
| COc1ccc2c(c1)c(CC(=O)O)c(C)n2C(=O)c1ccc(Cl)cc1 [indomethacin] | not inhibitory; also recorded: did not | – | – | – | – | – | – | – | – | – | – | – | – | – | – | – | – | – |
| ANP: atrial sodium peptide, a natriuretic peptide acting via NPR-A (SLRRSSCFGGRMDRIGAQSGLGCNSFRY; ends and bridges not checked; cysteine pairing not given here; UniProt P01160 124-151, looked up) [reference compound] | – | up to 70% | inhibitory effect | – | – | – | – | – | – | – | – | – | – | – | – | – | – | – |
| Gly Leu Ser Lys Gly Cys Phe Gly Leu Lys Leu Asp Arg Ile Gly Ser Met Ser Gly Leu Gly Cys (GLSKGCFGLKLDRIGSMSGLGC; disulfide 6-22; listed as Homo sapiens) [CNP-22, CNP-22 (Calbiochem Novabiochem) used in the tests] | – | up to 20% | – | remarkably reduced | significantly reduced | significantly lower | significantly inhibited | significantly lower | significantly inhibited | significantly lower; also recorded: significantly inhibited | significantly lower; also recorded: significantly inhibited | significantly inhibited | lower | somewhat lower | significantly heavy | increased significantly | significantly heavy | significantly smaller |
